Consider five compounds from US7659244B2, “Rapamycin peptides conjugates: synthesis and uses thereof” (Quest Pharmatech, Inc., priority 2004, dated 2010).

Where a name gives a salt, the structure may show the parent alone. Read-outs that look alike come from different tables or passages of the source. Where only a bound is given, the exact number is not on record here.

As a reminder, the IC50 is the point on the concentration scale where inhibition reaches its midpoint.

One assay relates to various cell lines. Conditions: in vitro; cited from earlier work.
Assay [1] concerns LS174T. As to the kind of experiment: cells. As to conditions: Homo sapiens, 96 h, read-out: Inhibition of H^3 Thymidine uptake (IC50 in nM).
Description: (§1) Quantification of cell proliferation and cell viability was determined by measuring the amount of radioactive [^3H-methyl]-thymidine incorporated into DNA.
(§2) Cell culture: For each cell line, culture was carried according to the ATCC Product Information Sheet provided. Cell lines were always freshly thawed prior to each experiment. For all experiments exponentially growing cells were harvested and centrifuged at 1100 rpm, the spent medium was aspirated and cell pellets were resuspended in fresh complete medium. Viable cells were enumerated by trypan blue exclusion using a hemacytometer.
(§3) Cells were then seeded in 96 well tissue culture plates in a total volume of 100 μL/well. A preliminary experiment should be performed to determine the most appropriate cell density for each individual cell line. Cells were allowed to attach and acclimate overnight.
(§4) Addition of test compounds: Each test compound was dissolved in DMSO at a final concentration of 2 mM. Each stock compound was then diluted in complete medium (1:100) to obtain a 20 μM working solution. The working solution was used for further serial dilutions to obtain concentrations of 200 nM, 20 nM, 2 nM, 0.2 nM and 0.02 nM. 100 μL of each dilution was added to the 100 μL cell cultures (3 replicates),. to give final test concentrations of 100 nM, 10 nM, 1 nM, 0.1 nM and 0.01 nM. Using this system of dilutions, the maximum concentration of DMSO to which the cells were exposed was 0.01% v/v. Therefore, 0.01% DMSO was added to control cells to which no test compounds was added. On each plate two positive controls were included: Adriamycin Hydrochloride and Rapamycin. For each positive control 3 concentrations were chosen in a range that achieved an LC50, this range is cell line specific and must be predetermined in a pilot experiment. Plates were incubated for 96 hours prior to harvesting. [^3H-methyl]-thymidine incorporation: After 80 hours incubation, 10 μL (0.5 μCi) of [^3H-methyl]-thymidine diluted in 1× HBSS was added and plates were incubated overnight.
(§5) Growth medium was removed from each well and 100 uL of Trypsin-EDTA was added. The plate was incubated at 37° C. until cells were trypsinized (check under microscope). The detached cells were harvested using a semiautomatic cell harvester. Filters were dried prior to addition to scintillation vials. two mL of scintillation fluid was automatically dispensed into each vial and counting was effected on program 1 (^3H, 1 min, DPM).
(§6) The average and standard error from the DPM counts of replicate samples were calculated.
The test system of assay [2] is A431. The experiment in a line: cells. As to conditions: Homo sapiens, A-431, 96 h, read-out: Inhibition of H^3 Thymidine uptake (IC50 in nM).
Description: as §1, §2, §3, §4, §5, §6
Assay [3] concerns Lncap. The experiment in a line: cells. Conditions: Homo sapiens, 96 h, read-out: Inhibition of H^3 Thymidine uptake (IC50 in nM).
Description: as §1, §2, §3, §4, §5, §6
Assay [4] concerns SK-N-SH. As to the kind of experiment: cells. Conditions: Homo sapiens, 96 h, read-out: Inhibition of H^3 Thymidine uptake (IC50 in nM).
Description: as §1, §2, §3, §4, §5, §6
Assay [5] deals with SKOV-3. The experiment in a line: cells. Conditions: Homo sapiens, SK-OV-3, 96 h, read-out: Inhibition of H^3 Thymidine uptake (IC50 in nM).
Description: as §1, §2, §3, §4, §5, §6
Assay [6] has as its system OVCAR-3. As to the kind of experiment: cells. As to conditions: Homo sapiens, OVCAR-3, 96 h, read-out: Inhibition of H^3 Thymidine uptake (IC50 in nM).
Description: as §1, §2, §3, §4, §5, §6
Assay [7] concerns D341. The experiment in a line: cells. Conditions: Homo sapiens, D341, 96 h, read-out: Inhibition of H^3 Thymidine uptake (IC50 in nM).
Description: as §1, §2, §3, §4, §5, §6
In assay [8] the test system is SKMEL-2. The experiment in a line: cells. As to conditions: Homo sapiens, SK-MEL-2, 96 h, read-out: Inhibition of H^3 Thymidine uptake (IC50 in nM).
Description: as §1, §2, §3, §4, §5, §6
For assay [9], the system named is MCF-7. The experiment in a line: cells. As to conditions: Homo sapiens, MCF7, 96 h, read-out: Inhibition of H^3 Thymidine uptake (IC50 in nM).
Description: as §1, §2, §3, §4, §5, §6
In assay [10] the test system is Lncap. Conditions: read-out: Inhibition of H^3 Thymidine uptake (IC50 in nM); Lncap cells, 96 hours incubation.
Description: as §1, §2, §3, §4, §5, §6
In assay [11] the test system is SK-N-SH. Conditions: read-out: Inhibition of H^3 Thymidine uptake (IC50 in nM); SK-N-SH cells, 96 hours incubation.
Description: as §1, §2, §3, §4, §5, §6
The subject of assay [12] is LS174T. As to conditions: read-out: Inhibition of H^3 Thymidine uptake (IC50 in nM); LS174T cells, 96 hours incubation.
Description: as §1, §2, §3, §4, §5, §6
Assay [13] has as its system SKOV-3. Conditions: read-out: Inhibition of H^3 Thymidine uptake (IC50 in nM); SKOV-3 cells, 96 hours incubation.
Description: as §1, §2, §3, §4, §5, §6
In assay [14] the test system is D341. Conditions: read-out: Inhibition of H^3 Thymidine uptake (IC50 in nM); D341 cells, 96 hours incubation.
Description: as §1, §2, §3, §4, §5, §6
Assay [15] relates to SKMEL-2. As to conditions: read-out: Inhibition of H^3 Thymidine uptake (IC50 in nM); SKMEL-2 cells, 96 hours incubation.
Description: as §1, §2, §3, §4, §5, §6
Assay [16] has as its system OVCAR-3. Conditions: read-out: Inhibition of H^3 Thymidine uptake (IC50 in nM); OVCAR-3 cells, 96 hours incubation.
Description: as §1, §2, §3, §4, §5, §6
In assay [17] the test system is MCF-7. Conditions: read-out: Inhibition of H^3 Thymidine uptake (IC50 in nM); MCF-7 cells, 96 hours incubation.
Description: as §1, §2, §3, §4, §5, §6
Assay [18] relates to A431. Conditions: read-out: Inhibition of H^3 Thymidine uptake (IC50 in nM); A431 cells, 96 hours incubation.
Description: as §1, §2, §3, §4, §5, §6

In the case of `CO[C@H]1C[C@@H]2CC[C@@H](C)[C@@](O)(O2)C(=O)C(=O)N2CCCC[C@H]2C(=O)O[C@H]([C@H](C)C[C@@H]2CC[C@@H](OC(=O)C(C)(CO)CO)[C@H](OC)C2)CC(=O)[C@H](C)/C=C(\C)[C@@H](O)[C@@H](OC)C(=O)[C@H](C)C[C@H](C)/C=C/C=C/C=C/1C` [CCI-779], in the assay with various cell lines, the concentration for half-maximal inhibition (IC50) is less than 0.01 µM.
For the compound `COc1cccc2c1C(=O)c1c(O)c3c(c(O)c1C2=O)C[C@@](O)(C(=O)CO)C[C@@H]3O[C@H]1C[C@H](N)[C@H](O)[C@H](C)O1` [Adriamycin, Adriamycin Hydrochloride], the 50% inhibitory concentration (IC50) in the assay on LS174T [1] turned out to be 4.04 nM; in the assay on A431 [2], 50.4 nM; with Lncap [3], 2.54 nM; in the assay on SK-N-SH [4], 0.896 nM; with SKOV-3 [5], 130 nM; in the assay on OVCAR-3 [6], 4.77 nM. In addition, the IC50 with D341 [7] was found to be 7.02 nM; in the assay on SKMEL-2 [8], 1.93 nM; with MCF-7 [9] it was 3.11 nM.
`CCC(C)C(CO)NC(=O)O[C@@H]1CC[C@@H](C[C@@H](C)[C@@H]2CC(=O)[C@H](C)/C=C(\C)[C@@H](O)[C@@H](OC)C(=O)[C@H](C)C[C@H](C)/C=C/C=C/C=C(\C)[C@@H](OC)C[C@@H]3CC[C@@H](C)[C@@](O)(O3)C(=O)C(=O)N3CCCC[C@H]3C(=O)O2)C[C@H]1OC` (stereo partly shown) [Compound 7m, Rapamycin-42-O-ester-2-amino-3-methyl-1-pentanol]: the IC50 was determined as 136 nM in the assay on Lncap [10]; 56.7 nM in the assay with SK-N-SH [11]; 664 nM with LS174T [12]; 69.1 nM with SKOV-3 [13]; 86.8 nM in the assay with D341 [14]; 147 nM in the assay on SKMEL-2 [15]. Besides, the IC50 is 488 nM in the assay on OVCAR-3 [16], 31.3 nM in the assay with MCF-7 [17] and 626 nM with A431 [18].
As to `CO[C@H]1C[C@@H]2CC[C@@H](C)[C@@](O)(O2)C(=O)C(=O)N2CCCC[C@H]2C(=O)O[C@H]([C@H](C)C[C@@H]2CC[C@@H](OC(=O)N[C@H](CO)[C@@H](C)O)[C@H](OC)C2)CC(=O)[C@H](C)/C=C(\C)[C@@H](O)[C@@H](OC)C(=O)[C@H](C)C[C@H](C)/C=C/C=C/C=C/1C` [Compound 7r, Rapamycin-42-O-ester-(2R,3R)-2-amino-1,3-butanediol], the 50% inhibitory concentration (IC50) in the assay with Lncap [10] was 21.8 nM; in the assay on SK-N-SH [11] it was 4.84 nM; in the assay with LS174T [12], 1410 nM; with SKOV-3 [13], 6.44 nM; with D341 [14] it was 5.5 nM; with SKMEL-2 [15] it was 8.32 nM. Also, the values for the IC50 in the assay with OVCAR-3 [16], in the assay with MCF-7 [17] and with A431 [18] were 47.2 nM, 1.86 nM and 191 nM, respectively.
In the case of `CO[C@H]1C[C@@H]2CC[C@@H](C)[C@@](O)(O2)C(=O)C(=O)N2CCCC[C@H]2C(=O)O[C@H]([C@H](C)C[C@@H]2CC[C@@H](O)[C@H](OC)C2)CC(=O)[C@H](C)/C=C(\C)[C@@H](O)[C@@H](OC)C(=O)[C@H](C)C[C@H](C)/C=C/C=C/C=C/1C` [Compound 5, Rapamycin], the IC50 is 980 nM in the assay on LS174T [1]; 341 nM in the assay with A431 [2]; 30.3 nM in the assay with Lncap [3]; 1.33 nM with SK-N-SH [4]; 0.392 nM in the assay on SKOV-3 [5]; 44.5 nM in the assay with OVCAR-3 [6]. Besides, the 50% inhibitory concentration (IC50) in the assay with D341 [7] turned out to be 1.56 nM; in the assay on SKMEL-2 [8] it was 1.12 nM; with MCF-7 [9], 0.408 nM.
